From ChEMBL document CHEMBL2439971, “Design, synthesis and antiproliferative evaluation of fluorenone analogs with DNA topoisomerase I inhibitory properties” (Bioorg Med Chem, 2013)
The source made the active and inactive calls. No cut-off for these calls is given here.

What was measured:
RXF 393 = assay: Cytotoxicity against human RXF393 cells at 10 uM after 48 hrs by sulforhodamine B assay relative to control; format: functional
OVCAR-4 = assay: Cytotoxicity against human OVCAR4 cells at 10 uM after 48 hrs by sulforhodamine B assay relative to control; format: functional
NCI/ADR-RES = assay: Cytotoxicity against human NCI/ADR-RES cells at 10 uM after 48 hrs by sulforhodamine B assay relative to control; format: functional
SNB-19 = assay: Cytotoxicity against human SNB19 cells at 10 uM after 48 hrs by sulforhodamine B assay relative to control; format: functional
SF-539 = assay: Cytotoxicity against human SF539 cells at 10 uM after 48 hrs by sulforhodamine B assay relative to control; format: functional
HCT-15 = assay: Cytotoxicity against human HCT15 cells at 10 uM after 48 hrs by sulforhodamine B assay relative to control; format: functional
OVCAR-8 = assay: Cytotoxicity against human OVCAR8 cells at 10 uM after 48 hrs by sulforhodamine B assay relative to control; format: functional
MDA-MB-435 = assay: Cytotoxicity against human MDA-MB-435 cells at 10 uM after 48 hrs by sulforhodamine B assay relative to control; format: functional
ACHN = assay: Cytotoxicity against human ACHN cells at 10 uM after 48 hrs by sulforhodamine B assay relative to control; format: functional
PC-3 [1] = assay: Cytotoxicity against human PC3 cells at 10 uM after 48 hrs by sulforhodamine B assay relative to control; format: functional
SK-MEL-2 = assay: Cytotoxicity against human SK-MEL-2 cells at 10 uM after 48 hrs by sulforhodamine B assay relative to control; format: functional
K562 = assay: Cytotoxicity against human K562 cells at 10 uM after 48 hrs by sulforhodamine B assay relative to control; format: functional
LOX IMVI = assay: Cytotoxicity against human LOXIMVI cells at 10 uM after 48 hrs by sulforhodamine B assay relative to control; format: functional
[2] = Cytotoxicity against human EKVX cells at 10 uM after 48 hrs by sulforhodamine B assay relative to control; format: functional
MOLT-4 = assay: Cytotoxicity against human MOLT4 cells at 10 uM after 48 hrs by sulforhodamine B assay relative to control; format: functional
786-0 = assay: Cytotoxicity against human 786-0 cells at 10 uM after 48 hrs by sulforhodamine B assay relative to control; format: functional
MCF7 = assay: Cytotoxicity against human MCF7 cells at 10 uM after 48 hrs by sulforhodamine B assay relative to control; format: functional
HOP-62 = assay: Cytotoxicity against human HOP62 cells at 10 uM after 48 hrs by sulforhodamine B assay relative to control; format: functional
SK-MEL-5 = assay: Cytotoxicity against human SK-MEL-5 cells at 10 uM after 48 hrs by sulforhodamine B assay relative to control; format: functional
UACC-257 = assay: Cytotoxicity against human UACC257 cells at 10 uM after 48 hrs by sulforhodamine B assay relative to control; format: functional
Homo sapiens = species on record: Homo sapiens; assay: Inhibition of telomerase (unknown origin) at 10 uM TRAP assay
HL-60(TB) = assay: Cytotoxicity against human HL-60(TB) cells at 10 uM after 48 hrs by sulforhodamine B assay relative to control; format: functional
CAKI-1 = assay: Cytotoxicity against human CAKI-1 cells at 10 uM after 48 hrs by sulforhodamine B assay relative to control; format: functional
SF-268 = assay: Cytotoxicity against human SF268 cells at 10 uM after 48 hrs by sulforhodamine B assay relative to control; format: functional
IGROV-1 = assay: Cytotoxicity against human IGROV1 cells at 10 uM after 48 hrs by sulforhodamine B assay relative to control; format: functional
PC-3 [3] = assay: Cytotoxicity against human PC3 cells after 48 hrs by sulforhodamine B assay; format: functional, cell-based; details: PC-3, 48 h
HT-29 = assay: Cytotoxicity against human HT-29 cells at 10 uM after 48 hrs by sulforhodamine B assay relative to control; format: functional
RPMI-8226 = assay: Cytotoxicity against human RPMI8226 cells at 10 uM after 48 hrs by sulforhodamine B assay relative to control; format: functional
NCI-H23 = assay: Cytotoxicity against human NCI-H23 cells at 10 uM after 48 hrs by sulforhodamine B assay relative to control; format: functional
M14 = assay: Cytotoxicity against human M14 cells at 10 uM after 48 hrs by sulforhodamine B assay relative to control; format: functional
SNB-75 = assay: Cytotoxicity against human SNB75 cells at 10 uM after 48 hrs by sulforhodamine B assay relative to control; format: functional
TK-10 = assay: Cytotoxicity against human TK10 cells at 10 uM after 48 hrs by sulforhodamine B assay relative to control; format: functional
KM12 = assay: Cytotoxicity against human KM12 cells at 10 uM after 48 hrs by sulforhodamine B assay relative to control; format: functional
HCT-116 = assay: Cytotoxicity against human HCT116 cells at 10 uM after 48 hrs by sulforhodamine B assay relative to control; format: functional
HCC 2998 = assay: Cytotoxicity against human HCC2998 cells at 10 uM after 48 hrs by sulforhodamine B assay relative to control; format: functional
DU-145 = assay: Cytotoxicity against human DU145 cells at 10 uM after 48 hrs by sulforhodamine B assay relative to control; format: functional
MDA-MB-231 = assay: Cytotoxicity against human MDA-MB-231 cells at 10 uM after 48 hrs by sulforhodamine B assay relative to control; format: functional
UO-31 = assay: Cytotoxicity against human UO31 cells at 10 uM after 48 hrs by sulforhodamine B assay relative to control; format: functional
SR = assay: Cytotoxicity against human SR cells at 10 uM after 48 hrs by sulforhodamine B assay relative to control; format: functional
[4] = Cytotoxicity against human Hs 578T cells at 10 uM after 48 hrs by sulforhodamine B assay relative to control; format: functional
SN12C = assay: Cytotoxicity against human SN12C cells at 10 uM after 48 hrs by sulforhodamine B assay relative to control; format: functional
CCRF-CEM = assay: Cytotoxicity against human CCRF-CEM cells at 10 uM after 48 hrs by sulforhodamine B assay relative to control; format: functional
SW-620 = assay: Cytotoxicity against human SW620 cells at 10 uM after 48 hrs by sulforhodamine B assay relative to control; format: functional
Malme-3M = assay: Cytotoxicity against human MALME-3M cells at 10 uM after 48 hrs by sulforhodamine B assay relative to control; format: functional
BT-549 = assay: Cytotoxicity against human BT549 cells at 10 uM after 48 hrs by sulforhodamine B assay relative to control; format: functional
A549 = assay: Cytotoxicity against human A549 cells at 10 uM after 48 hrs by sulforhodamine B assay relative to control; format: functional
T47D = assay: Cytotoxicity against human T47D cells at 10 uM after 48 hrs by sulforhodamine B assay relative to control; format: functional
U-251 = assay: Cytotoxicity against human U251 cells at 10 uM after 48 hrs by sulforhodamine B assay relative to control; format: functional
NCI-H522 = assay: Cytotoxicity against human NCI-H522 cells at 10 uM after 48 hrs by sulforhodamine B assay relative to control; format: functional
UACC-62 = assay: Cytotoxicity against human UACC62 cells at 10 uM after 48 hrs by sulforhodamine B assay relative to control; format: functional
MDA-MB-468 = assay: Cytotoxicity against human MDA-MB-468 cells at 10 uM after 48 hrs by sulforhodamine B assay relative to control; format: functional
COLO 205 = assay: Cytotoxicity against human COLO205 cells at 10 uM after 48 hrs by sulforhodamine B assay relative to control; format: functional
NCI-H460 = assay: Cytotoxicity against human NCI-H460 cells at 10 uM after 48 hrs by sulforhodamine B assay relative to control; format: functional
SK-MEL-28 = assay: Cytotoxicity against human SK-MEL-28 cells at 10 uM after 48 hrs by sulforhodamine B assay relative to control; format: functional
NCI-H226 = assay: Cytotoxicity against human NCI-H226 cells at 10 uM after 48 hrs by sulforhodamine B assay relative to control; format: functional
OVCAR-5 = assay: Cytotoxicity against human OVCAR5 cells at 10 uM after 48 hrs by sulforhodamine B assay relative to control; format: functional
SF-295 = assay: Cytotoxicity against human SF295 cells at 10 uM after 48 hrs by sulforhodamine B assay relative to control; format: functional
OVCAR-3 = assay: Cytotoxicity against human OVCAR3 cells at 10 uM after 48 hrs by sulforhodamine B assay relative to control; format: functional
NCI-H322M = assay: Cytotoxicity against human NCI-H322M cells at 10 uM after 48 hrs by sulforhodamine B assay relative to control; format: functional

## CCNCC(=O)Nc1ccc2c(c1)C(=O)c1cc(NC(=O)CNCC)ccc1-2
RXF 393
  Activity: 91.9%
OVCAR-4
  Activity: 69.72%
NCI/ADR-RES
  Activity: 93.46%
SNB-19
  Activity: 95.76%
SF-539
  Activity: 102.19%
HCT-15
  Activity: 95.25%
OVCAR-8
  Activity: 61.15%
MDA-MB-435
  Activity: 65.72%
ACHN
  Activity: 69.43%
PC-3 [1]
  Activity: 67.64%
SK-MEL-2
  Activity: 106.9%
K562
  Activity: 53.9%
LOX IMVI
  Activity: 72.19%
[2]
  Activity: 90.83%
MOLT-4
  Activity: 61.34%
786-0
  Activity: 101.23%
MCF7
  Activity: 40.53%
HOP-62
  Activity: 71.54%
SK-MEL-5
  Activity: 93.43%
UACC-257
  Activity: 97.32%
Homo sapiens
  inhibition: inactive
HL-60(TB)
  Activity: 95.53%
CAKI-1
  Activity: 94.69%
SF-268
  Activity: 78.21%
IGROV-1
  Activity: 97.57%
PC-3 [3]
  IC50: 4.38 µM
HT-29
  Activity: 48.89%
RPMI-8226
  Activity: 91.09%
NCI-H23
  Activity: 78.18%
M14
  Activity: 90.37%
SNB-75
  Activity: 92.67%
TK-10
  Activity: 88.37%
KM12
  Activity: 77.37%
HCT-116
  Activity: 64.57%
HCC 2998
  Activity: 85.37%
DU-145
  Activity: 69.67%
MDA-MB-231
  Activity: 77.38%
UO-31
  Activity: 89.54%
SR
  Activity: 81.75%
[4]
  Activity: 91.4%
SN12C
  Activity: 77.91%
CCRF-CEM
  Activity: 66.36%
SW-620
  Activity: 51.79%
Malme-3M
  Activity: 113.96%
BT-549
  Activity: 123.2%
A549
  Activity: 62.52%
T47D
  Activity: 88.81%
U-251
  Activity: 55.71%
NCI-H522
  Activity: 82.16%
UACC-62
  Activity: 110.09%
MDA-MB-468
  Activity: 63.55%
COLO 205
  Activity: 64.33%
NCI-H460
  Activity: 70.36%
SK-MEL-28
  Activity: 82.07%
NCI-H226
  Activity: 99.42%
OVCAR-5
  Activity: 116.02%
SF-295
  Activity: 91.26%
OVCAR-3
  Activity: 90.91%
NCI-H322M
  Activity: 67.74%
